Patent publication US20240165209A1, “PLACENTAL ALKALINE PHOSPHATASE FOR REDUCING THE LOSS OF RED BLOOD CELLS, WHITE BLOOD CELLS, AND PLATELETS IN CHEMOTHERAPY TREATED CANCER PATIENTS” (ZOLTAN LABORATORIES, LLC, priority 2021, published 2024)

Tests used:
[1] = system: nucleated bone marrow cells (BM); test: Nucleated bone marrow (BM) cells per femur in Cyp treated T47D tumor bearing mice; format: in vivo, mouse; settings: Cyp 120 mg/kg i.p. daily x6, PLAP 7.5 mg/kg s.c. days 0, 2, 4, 6
Method: Again, first-generation hybrid BDF1 (C57BL/6 female×DBA/2 male) 10 weeks old adult female mice bearing T47D tumors (2.6-3.3 cm^3) were used. In the first group, mice received no treatment. In the second and third groups, mice were administered 120 mg/kg of Cyp intraperitoneally once a day for 6 consecutive days. In a third group, mice were also administered 7.5 mg/kg of PALP subcutaneously on days 0, 2, 4 and 6. On the days indicated in TABLE 4, the animals were killed, then the bone marrow was flushed from the femurs with Iscove's modified Dulbecco's medium (Gibco BRL, Gaithersburg, MD, USA). This was followed by standard erythrocyte lysis and then by counting the number of nucleated bone marrow (BM) cells per femur using a hemocytometer.

[2] = system: blood cells (RBCs, WBCs, platelets) of T47D tumor bearing mice; test: Experiment 2: blood cell counts in Cyp-treated T47D tumor bearing mice, last sample day 10; format: in vivo, mouse; settings: Cyp 120 mg/kg, PLAP 7.5 mg/kg days 0, 2, 4, 6
Method: In the two experiments performed, first-generation hybrid BDF1 (C57BL/6 female×DBA/2 male) 10 weeks old adult female mice bearing T47D tumors (2.6-3.3 cm 3 volume) were used.
The second experiment was performed with T47D tumor bearing mice similarly to the one described to TABLE 2, except that one group of Cyp (120 mg/kg) treated mice were co-treated treated with PLAP (7.5 mg/kg) on days 0, 2, 4, and 6. […] The data shown is the average of 6 independent determinations±S.D.

[3] = system: mouse bone marrow-derived hematopoietic stem cells (HSCs); settings: 200 μM Cyp, 3 days, absence of PLAP
Method: Bone marrow was harvested by flushing bones from female C57/BL/6 mice in Fischer medium (Thermo Fisher Scientific; catalogue no. 21475025) containing 20% horse serum (Hyclone, Logan, UT), 100 Unit/ml penicillin, […] streptomycin (Gibco, BRL), 0.015 fungizone (Gibco, BRL), and 0.1 μM hydrocortisone sodium succinate (SynoPharm; Hamburg, Germany). Pooled stem cells were seeded into 25 cm 3 flasks (10 ml cell suspension) and after 3 days of incubation at 33° C. in 5% CO2 in air in the absence of PLAP, they were plated into 12-well plates and were incubated in the absence (n=8) or presence of 50 μg/ml PLAP (n=8) for additional 3 days.
In a follow up experiment with hematopoietic stem cells, the same incubation medium in 12-well plates contained either no other addition (n=8) or contained 200 μM Cyp without (n=8) or with 50 μg/ml PLAP (n=8) for 3 days.

O.O=P1(N(CCCl)CCCl)NCCCO1 (centres unmarked) [Cyp, 2-[Bis (2-chloroethyl)amino] tetrahydro-2H-1,3,2-oxazaphosphorine 2-oxide monohydrate]
Nucleated BM cells/femur ([1]; day 0): 14.11 ± 1.50 ×10^6
Nucleated BM cells/femur ([1]; day 3): 9.32 ± 2.32 ×10^6
Nucleated BM cells/femur ([1]; day 6): 3.10 ± 2.26 ×10^6
Nucleated BM cells/femur ([1]; day 9): 4.90 ± 2.17 ×10^6
Platelets ([2]; day 0): 1,185 ± 101^ ×10^−3/μl
RBCs ([2]; day 0): 9.51 ± 0.70 ×10^−6/μl
WBCs ([2]; day 0): 8.86 ± 0.61 ×10^−3/μl
Platelets ([2]; day 6): 372 ± 57 ×10^−3/μl
RBCs ([2]; day 6): 4.83 ± 0.62 ×10^−6/μl
WBCs ([2]; day 6): 2.79 ± 0.47 ×10^−3/μl
Platelets ([2]; day 10): 746 ± 92 ×10^−3/μl
RBCs ([2]; day 10): 6.88 ± 0.61 ×10^−6/μl
WBCs ([2]; day 10): 6.15 ± 0.45 ×10^−3/μl
decrease of the number of cells by Cyp [3]: 52%
